In patent US20200024299A1, “CRYSTALLINE FORMS OF A BILE ACID DERIVATIVE” (Intercept Pharmaceuticals, Inc., priority 2016, published 2020):
Entries after “also recorded” stand apart in the source; their conditions may differ.

What was measured:
Assay type in all cases: physicochemical
[1] = Gravimetric Vapor Sorption (GVS), hygroscopicity
Method: Sorption isotherms were obtained using a SMS DVS Intrinsic moisture sorption analyzer, controlled by DVS Intrinsic Control software v1.0.1.2 (or v 1.0.1.3). The sample temperature was maintained at 25° C. by the instrument controls. The humidity was controlled by mixing streams of dry and wet nitrogen, with a total flow rate of 200 mL/min. The relative humidity was measured by a calibrated Rotronic probe (dynamic range of 1.0-100% RH), located near the sample. The weight change, (mass relaxation) of the sample as a function of % RH was constantly monitored by the microbalance (accuracy ±0.005 mg).
Typically, 5-20 mg of sample was placed in a tared mesh stainless steel basket under ambient conditions. The sample was loaded and unloaded at 40% RH and 25° C. (typical room conditions). A moisture sorption isotherm was performed as outlined below (2 scans giving 1 complete cycle). The standard isotherm was performed at 25° C. at 10% RH intervals over a 0-90% RH range. Data analysis was carried out using Microsoft Excel using DVS Analysis Suite v6.2 (or 6.1 or 6.0).

[2] = Storage stability at controlled temperature / relative humidity
[3] = Aqueous solubility at 25° C.; details: water
[4] = Variable Temperature XRPD (physical stability on heating); details: upon heating
Method: X-Ray Powder Diffraction patterns were collected on a Bruker AXS C2 GADDS diffractometer using Cu Kα radiation (40 kV, 40 mA), automated XYZ stage, laser video microscope for auto-sample positioning and a HiStar 2-dimensional area detector. X-ray optics consists of a single Gobel multilayer mirror coupled with a pinhole collimator of 0.3 mm. A weekly performance check is carried out using a certified standard NIST 1976 Corundum (flat plate).
The beam divergence, i.e., the effective size of the X-ray beam on the sample, was approximately 4 mm. A 0-0 (theta-theta) continuous scan mode was employed with a sample—detector distance of 20 cm which gives an effective 20 (theta) range of 3.2°-29.7°. Typically, the sample would be exposed to the X-ray beam for 120 seconds. The software used for data collection was GADDS for XP/2000 4.1.43 and the data were analyzed and presented using Diffrac Plus EVA v15.0.0.0.
Samples run under non-ambient conditions were mounted on a silicon wafer with heat-conducting compound. The sample was then heated to the appropriate temperature at 20° C./min and subsequently held isothermally for 1 minute before data collection was initiated.

[5] = listed as Amorphous Form of Compound 1-Na

With `CC[C@H]1[C@@H](O)C2C3CC[C@H]([C@H](C)CCOS(=O)(=O)[O-])[C@@]3(C)CCC2[C@@]2(C)CC[C@@H](O)C[C@@H]12.[Na+]` (stereo partly drawn) [6α-ethyl-3α,7α,23-trihydroxy-24-nor-5β-cholan-23-sulphate sodium] the “GVS water uptake from 40% to 60% RH” value ([1]; 40% to 60% RH) was 2.6% w/w of water uptake from 40% to 60% RH, the “XRPD post GVS” value ([1]; after GVS) was “Unchanged” and the “GVS hysteresis (process reversible)” value ([1]; sorption/desorption) was roughly 1% w/w. For the same molecule, the “GVS total water uptake” value ([1]; whole GVS cycle) was “Total of 8% w/w water uptake”, the “12 days Storage @ 25° C./60% RH” value ([2]; 12 days, 25° C./60% RH) was “Unchanged” and the “12 days Storage @ 40° C./60% RH” value ([2]; 12 days, 40° C./60% RH) was “Unchanged”.

For `CC[C@H]1[C@@H](O)C2C3CC[C@H]([C@H](C)CCOS(=O)(=O)[O-])[C@@]3(C)CCC2[C@@]2(C)CC[C@@H](O)C[C@@H]12.[Na+]` (stereo partly drawn) [Amorphous Compound 1-Na, 6α-ethyl-3α,7α,23-trihydroxy-24-nor-5β-cholan-23-sulphate sodium], the “Aqueous Solubility (25° C.)” value [3] was greater than 200 mg/mL, the solubility [3] was greater than 200 mg/mL and the “Storage @ 25° C./60% RH” value ([2]; 25° C./60% RH) was “Unchanged for at least 1 month”. The “Storage @ 25° C./60% RH” value ([2]; 25° C./60% RH, listed as Amorphous Form of Compound 1-Na) was “physically stable for at least 1 month”, the “Storage @ 25° C./97% RH” value [2] was “Deliquesced in less than days” and the “Storage @ 25° C./97% RH” value [2, 5] was “deliquescent”. The “Storage @ 40° C./75% RH” value [2] was “Deliquesced in less than 3 days” and the “Storage @ 40° C./75% RH” value [2, 5] was “deliquescent”.

With `CC[C@H]1[C@@H](O)C2C3CC[C@H]([C@H](C)CCOS(=O)(=O)[O-])[C@@]3(C)CCC2[C@@]2(C)CC[C@@H](O)C[C@@H]12.[Na+]` (stereo partly drawn) [Example 5, 6α-ethyl-3α,7α,23-trihydroxy-24-nor-5β-cholan-23-sulphate sodium] the “GVS water uptake from 40% to 80% RH” value ([1]; 25° C., 40% to 80% RH) was 4 % w/w, the “GVS water uptake from 40% to 80% RH (equivalents of water)” value ([1]; 25° C., 40% to 80% RH) was 1.1 eq and the “GVS water uptake from 80% to 90% RH” value ([1]; 25° C., 80% to 90% RH) was 24 % w/w. The “GVS water uptake from 80% to 90% RH (equivalents of water)” value ([1]; 25° C., 80% to 90% RH) was 6.6 eq, the “GVS: state of sample during the analysis” value ([1]; 25° C., up to 90% RH) was “the sample deliquesced” and the “Hygroscopic profile from 40% to 80% RH” value ([1]; 40% to 80% RH) was “moderate hygroscopic profile”. For the same molecule, the “GVS water uptake at RH greater than 80%” value ([1]; RH greater than 80%) was 24%, the “GVS water uptake at RH greater than 80% (equivalents of water)” value ([1]; RH greater than 80%) was 6.6 eq and the “Hygroscopic profile at RH greater than 80%” value ([1]; RH greater than 80%) was “very hygroscopic profile”. The VT-XRPD [4] was “unchanged upon heating”, the “Storage @ 25° C./60% RH” value ([2]; 25° C./60% RH) was “stable for at least one month; also recorded: Unchanged for at least 1 month” and the “Storage @ 25° C./97% RH” value [2] was “deliquesced sample after 3 days; also recorded: Deliquesced in three days”. For the same molecule, the “Storage @ 40° C./75% RH” value [2] was “deliquesced sample after 3 days; also recorded: Deliquesced in three days”.

With `CC[C@H]1[C@@H](O)C2C3CC[C@H]([C@H](C)CCOS(=O)(=O)[O-])[C@@]3(C)CCC2[C@@]2(C)CC[C@@H](O)C[C@@H]12.[Na+]` (stereo partly drawn) [Form A of Compound 1-Na Formed via Suspension] [6α-ethyl-3α,7α,23-trihydroxy-24-nor-5β-cholan-23-sulphate sodium] the “Storage @ 25° C./60% RH” value ([2]; 25° C./60% RH) was “successful for at least 1 month; also recorded: Unchanged for at least 1 month”, the “Storage @ 25° C./97% RH” value [2] was “Deliquesced in less than 3 days” and the “Storage @ 40° C./75% RH” value [2] was “Deliquesced in less than 3 days”.
